Counter-ions that a name gives are not always drawn.
Assays:
[1] = test system: mortality induced by histamine; assay: Effect on the mortality induced by histamine; format: in vivo, male albino guinea pigs (Dunkin-Hartley); conditions: Cavia porcellus, ip, 30 minutes before 1.25 mg/kg i.v. histamine dihydrochloride; guinea pigs; read-out: Histamine mortality ID50
Procedure: The method described by Romer D. et al., (Med. Welt 17, 791, 1966) was followed and the tests were carried out on male albino guinea pigs (Dunkin-Hartley), weighing 350-450 g, which were kept in cages with a grid floor, on an empty stomach for 24 hrs and with water ad libitum.
The compounds (I) were dissolved in saline solution and intraperitoneally administered to the animals: 30 minutes later the same animals were intravenously treated with 1.25 mg/kg of histamine dihydrochloride in saline solution.
It was evaluated ID50 which corresponds to the amount of the compound able to inhibit 50% of the mortality induced by histamine: the estimation of ID50 was carried out by applying the `probit` method (Finney D. J. "Statistical Method in Biological Assay" p. 512, 1957).

[2] = molecular target: T1, H1 histaminergic receptors (Rattus norvegicus, UniProt P31390); assay: Affinity towards H1 histaminergic receptors ([3H]Mepyramine displacement, rat brain homogenates); conditions: 2 nM [3H]Mepyramine, 25° C., 15 minutes, pH 7.5, read-out: H1-receptor binding IC50
T1 construct: in homogenates of rat brain; from tissue; host or cells: rat whole brain homogenate
T1 sequence (P31390 whole entry): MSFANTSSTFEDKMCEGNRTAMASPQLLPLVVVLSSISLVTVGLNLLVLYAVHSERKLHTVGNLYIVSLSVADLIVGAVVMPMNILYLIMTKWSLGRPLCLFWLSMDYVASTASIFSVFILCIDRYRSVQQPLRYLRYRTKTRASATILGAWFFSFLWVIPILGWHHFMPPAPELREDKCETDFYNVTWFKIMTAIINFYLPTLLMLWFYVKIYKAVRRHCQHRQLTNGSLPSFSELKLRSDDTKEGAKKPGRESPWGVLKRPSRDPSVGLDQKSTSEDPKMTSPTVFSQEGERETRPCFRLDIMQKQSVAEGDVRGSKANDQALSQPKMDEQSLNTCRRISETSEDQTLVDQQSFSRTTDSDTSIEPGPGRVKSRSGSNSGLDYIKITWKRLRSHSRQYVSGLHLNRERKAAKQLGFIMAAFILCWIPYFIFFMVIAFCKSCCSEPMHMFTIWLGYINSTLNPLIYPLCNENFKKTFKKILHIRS
Procedure: The affinity of the examined compounds towards H1 histaminergic receptors as evaluated by displacement curves which were obtained of different concentrations, against [^3 H]
The incubation was performed at 25° C. for 15 minutes, in a final volume of 1 ml of […] Na/K phosphate buffer, pH 7.5, in the presence of 2 nM [^3 H] Mepyramina and 1.5 mg of cerebral protein. Aspecific binding was defined as the residual radioactivity bound in the presence of […] Clemastine. The test compounds were dissolved in phosphate buffer or dimethylsulfoxide (DMSO), the final concentration of DMSO was 0.5%. Incubation was terminated by filtration through glass fiber GF/B filters pre-soaked with 0.1% polyethylenimine (PEI). The radioactivity trapped by filters was counted by liquid scintillation.

[3] = test system: mortality induced by compound 48/80; assay: Effect on the mortality induced by compound 48/80; format: in vivo, Sprague Dawley Nos male rats; conditions: Rattus norvegicus, ip, 4 h; i.p., 30 minutes before 2 mg/kg i.v. compound 48/80; rats; read-out: Compound 48/80 mortality ID50
Procedure: The tests were carried out according to the method described by C. J. E. Niemergeers et al., Arch. Int. Pharmacodyn., 234,164,-1978. Sprague Dawley Nos male rats (Nossan, Correzzana, Milano) weighing 140-150 g, divided into groups of 10 animals each, on an empty stomach for 24 hrs and with water ad libitum, were kept in cages with a grid floor, then treated intravenously with 2 mg/kg of compound 48/80 (1 ml/rat). The compound (I) or the carrier were dissolved in water (5 ml/kg) and intraperitoneally administered to the animals 30 minutes before the treatment with the compound 48/80. The mortality occurred in the group of treated animals during the first 4 hours following the treatment was noted down. The results were expressed as the number of animals dead with respect to the number of treated animals.
The experimental data were submitted to the variance analysis and to the subsequent multiple comparisons according to Dunnett (D. J. Finney, "Statistical Method in Biological Assay", Ed. L. Griffin and Co., Ltd., pg. 152-157, Edition Ames, Iowa, 1971).

[4] = Acute toxicity (LD50) on mice; conditions: mouse, in vivo, ip
Procedure: The Letal Dose50 (LD50) was evaluated on mice using Swiss Nos (Nossan, Correzzana, Milano) mice weighing 18-20 g each. The animals, divided into groups of 10 animals each (5M+5F), were on an empty stomach for 18 hrs, with water ad libitum, and kept in cages with a grid floor. The compounds (I) were dissolved in water or suspended in 0.5% carboxymethylcellulose and intraperitioneally administered to the animals (10 ml/kg). The mortality occurred in the tested animals within the following 6 hours was noted down. At the expiry of the 6th hour, the animals were allowed to eat up to the end of the experimentation which lasted 14 days. During this period all the toxic symptoms and the mortality occurring were noted.
The animals which died during the test period and those which were sacrificed at the end of the same, underwent autopsy for a macroscopic examination of their main organs. The experimental data were statistically compared with the X^2 method and LD50 was extrapolated by the `probit` method.

[5] = Effect on the sleeping time; format: in vivo; conditions: 25 mg/kg i.p.

Structure (SMILES) | ED50 [1] [mg/kg] | IC50 [2] [nM] | ED50 [3] [mg/kg] | LD50 at 336 h [4] [mg/kg] | Sleeping time % increase [5] [%]
CCOCCn1c(SCCN(C)C)nc2ccccc21 [Example 3, 1-(2-Ethoxyethyl)-2-(2-dimethylaminoethylthio)benzimidazole. 2 HCl] | 0.0109 | 2.4 | 0.008 | > 100 | 5
CCOCCn1c(SCC(C)N(C)C)nc2ccccc21 (centres unmarked) [Example 5, 1-(2-Ethoxyethyl)-2-(2-dimethylaminoisopropylthio)benzimidazole] | 0.05 | 6.1 | 0.009 | ~100 | 10
CC(C)(C)c1ccc(C(O)CCCN2CCC(C(O)(c3ccccc3)c3ccccc3)CC2)cc1 (centres unmarked) [Terfenadine, reference compound] | 0.735 |  | 1.99 | > 100 | 8

— patent US4983620A, “Pharmacologically active alkylthiobenzimidazole derivatives and process for the preparation thereof” (Dompe Farmaceutici S.p.A., priority 1988, dated 1991)
